Columns and labels:
[1] = Chloride ion concentration of aqueous solutions by ion chromatography; format: physicochemical; settings: detection limit 0.1 ppm; each sample
Procedure: When chloride ion concentration in the aqueous 5-aminolevulinic acid phosphate solutions used in the above-described examples was measured by ion chromatography under the following conditions, it was equal to or lower than the detection limit (0.1 ppm) in each sample.
(§1) The measuring conditions are as follows; A: separation column (IonPac AS12A manufactured by Japan Dionex), B: guard column (IonPac AG12A manufactured by Japan Dionex), C: eluting solution (an aqueous solution containing Na2CO3: 3.0 mmol/l and NaHCO3: 0.5 mmol/l), D: flow rate (1.5 ml/min), E: suppressor (ASRS (recycle mode, current value 50 mA)), F: amount of introduced sample (25 μl), G: temperature of constant temperature oven (35° C.) and H: detector (electric conductivity detector).
When chloride ion concentration in the aqueous 5-aminolevulinic acid nitrate solutions used in the above-described examples was measured by ion chromatography under the following conditions, it was equal to or lower than the detection limit (0.1 ppm) in each sample.
as §1, with “follows:” for “follows;”, “consisting of” for “containing”
When chloride ion concentration in the aqueous 5-aminolevulinic acid p-toluenesulfonate solutions used in the above-described examples was measured by ion chromatography under the following conditions, it was equal to or lower than the detection limit (0.1 ppm) in each sample.

radish = assay: Plant activating effect, foliar application, radish; format: in vivo; settings: 21 days, 12 seeds
Procedure: After 600 g of upland soil was packed in a porcelain pot of 12 cm in inner diameter, 12 grains of radish seeds were sowed therein, covered with 5 mm in depth of the soil and allowed to grow in a green house. Foliar application treatment was carried out once a day using the following application liquids. Conditions of the leaves 21 days thereafter were observed.

apple variety “Fuji” = assay: Coloring test of apple; format: in vivo; settings: for Coloring of red compared with 5-aminolevulinic acid hydrochloride: in vivo
Procedure: The 5-aminolevulinic acid phosphate obtained in Example 1 was dissolved in ion exchange water to the predetermined concentration shown in the following table. A spreader (“Approach BI” manufactured by Maruwa Biochemical) was added to the liquid to a concentration of 0.1% by weight. The pH was adjusted using phosphoric acid.
An aqueous 5-aminolevulinic acid hydrochloride solution was prepared in the same manner, except that the above-described 5-aminolevulinic acid phosphate was changed to 5-aminolevulinic acid hydrochloride and the phosphoric acid for pH adjustment was changed to hydrochloric acid.
The thus prepared liquid was sprayed at a ratio of 2 liters per branch on three main branches where young fruits of an apple variety “Fuji” bored but not yet colored into red (September 15). About 2 months thereafter (November 6), the apples were harvested and their coloring degree was examined. A color meter CR-200 manufactured by MINOLTA CAMERA was used for the measurement of color.
The 5-aminolevulinic acid nitrate obtained in Example 16 was dissolved in ion exchange water to the predetermined concentration shown in Table 16. A spreader (“Approach BI” manufactured by Maruwa Biochemical) was added to the liquid to a concentration of 0.1% by weight. The pH was adjusted using nitric acid.
A solution was prepared in the same manner, except that the above-described 5-aminolevulinic acid nitrate was changed to 5-aminolevulinic acid hydrochloride and the nitric acid was changed to hydrochloric acid.
The 5-aminolevulinic acid p-toluenesulfonate obtained in Example 23 was dissolved in ion exchange water to the predetermined concentration shown in Table 24. A spreader (“Approach B1” manufactured by Maruwa Biochemical) was added to the liquid to a concentration of 0.1% by weight. The pH was adjusted using p-toluenesulfonic acid.
A solution was prepared in the same manner, except that the above-described 5-aminolevulinic acid p-toluenesulfonate was changed to 5-aminolevulinic acid hydrochloride and the p-toluenesulfonic acid was changed to hydrochloric acid.

Chlorella sp. = assay: Culturing of plankton; format: cell-based; settings: for amount of cells: OD 660 nm: 1 mM additive
Procedure: (§2) 5-Aminolevulinic acid nitrate was added, to a concentration of 1 mM (194 ppm), to 100 ml of a sterilized culture shown in Table 17 (components of the culture), and a Chlorella sp. was inoculated therein and cultured on a reciprocal shaker at 30° C. under aerobic and dark conditions to measure the amount of cells (OD 660).
as §2, with “acid hydrochloride” for “acid nitrate”, “mM (168” for “mM (194”, “of the” for “of a”, “and the” for “and a”
The Chlorella sp. was inoculated into 100 ml of the sterilized culture shown in Table 17 (components of the culture) and cultured on a reciprocal shaker at 30° C. under aerobic and dark conditions to measure the amount of cells (OD 660).

[2] = Test on the generation of silver chloride precipitation with silver nitrate; format: physicochemical; settings: 0.5 g with 0.5 g of silver nitrate in 10 ml of ion exchange water, 5 minutes
Procedure: In 10 ml of ion exchange water, 0.5 g of 5-aminolevulinic acid phosphate and 0.5 g of silver nitrate were dissolved, the mixture was allowed to stand still for 5 minutes, and conditions of the liquid was observed. […] In this connection, 0.5 g of 5-aminolevulinic acid hydrochloride and 0.5 g of silver nitrate were dissolved in 10 ml of ion exchange water and allowed to stand still for 5 minutes, and conditions of the liquid was observed.
In 10 ml of ion exchange water, 0.5 g of 5-aminolevulinic acid nitrate and 0.5 g of silver nitrate were dissolved, the mixture was allowed to stand still for 5 minutes, and conditions of the liquid was observed.
In this connection, 0.5 g of 5-aminolevulinic acid hydrochloride and 0.5 g of silver nitrate were dissolved in 10 ml of ion exchange water and allowed to stand still for 5 minutes, and conditions of the liquid was observed.
In 10 ml of ion exchange water, 0.5 g of 5-aminolevulinic acid p-toluenesulfonate and 0.5 g of silver nitrate were dissolved, the mixture was allowed to stand still for 5 minutes, and conditions of the liquid was observed.

[3] = Degradation test by sterilization; format: physicochemical
Procedure: Firstly, 50 mg of 5-aminolevulinic acid p-toluenesulfonate or 5-aminolevulinic acid hydrochloride was heat sterilized (121° C., 20 minutes, 1.5 kgf/cm^2). After confirming that there is no change in weight before and after the sterilization, degree of degradation of 5-aminolevulinic acid before and after the sterilization was verified by the method described in a reference (Clin. Chem., 36/8, 1494 (1990)).

Row | Compound | chloride ion concentration in the aqueous solutions used in the examples [1] [ppm] | plants judged 0: Abnormality was not found on the leaf surface (radish; 1 ppm in tap water) [plants] | plants judged 1: A region discolored to yellow was found on the leaf surface (radish; 1 ppm in tap water) [plants] | plants judged 2: A necrotic region was found on the leaf surface (radish; 1 ppm in tap water) [plants] | plants judged 0: Abnormality was not found on the leaf surface (radish; 10 ppm in tap water) [plants] | plants judged 1: A region discolored to yellow was found on the leaf surface (radish; 10 ppm in tap water) [plants] | plants judged 2: A necrotic region was found on the leaf surface (radish; 10 ppm in tap water) | plants judged 0: Abnormality was not found on the leaf surface (radish; 100 ppm in tap water) [plants] | plants judged 1: A region discolored to yellow was found on the leaf surface (radish; 100 ppm in tap water) [plants] | plants judged 2: A necrotic region was found on the leaf surface (radish; 100 ppm in tap water) | Coloring, L (apple variety “Fuji”; 100 ppm (pH 5.0)) | Coloring, a (apple variety “Fuji”; 100 ppm (pH 5.0)) | Coloring, b (apple variety “Fuji”; 100 ppm (pH 5.0)) | Coloring, L (apple variety “Fuji”; 200 ppm (pH 4.9)) | Coloring, a (apple variety “Fuji”; 200 ppm (pH 4.9)) | Coloring, b (apple variety “Fuji”; 200 ppm (pH 4.9)) | Coloring of red compared with 5-aminolevulinic acid hydrochloride (apple variety “Fuji”) | generation of precipitate [2] | also measured
1 | NCC(=O)CCC(=O)O.O=[N+]([O-])O [5-aminolevulinic acid nitrate, 5-aminolevulinic Acid Nitrate] | ≤ 0.1 | 5 | 5 | 2 | 6 | 5 | 1 plant^ plants | 4 | 6 | 2 plants | 42.41 | 26.51 | 14.46 | 42.47 | 31.00 | 14.72 | Coloring of red was denser | Generation of the precipitate was not found | effect on Chlorella culture compared with hydrochloride (Chlorella sp.): showed the same effect of 5-aminolevulinic acid hydrochloride; amount of cells: OD 660 nm (Chlorella sp.; Culture time 0 day): 1.8; amount of cells: OD 660 nm (Chlorella sp.; Culture time 1 day): 6.5; amount of cells: OD 660 nm (Chlorella sp.; Culture time 2 day): 12.6; amount of cells: OD 660 nm (Chlorella sp.; Culture time 3 day): 15.0
2 | Cc1ccc(S(=O)(=O)O)cc1.NCC(=O)CCC(=O)O [5-aminolevulinic acid p-toluenesulfonate, 5-aminolevulinic Acid p-toluenesulfonate] | ≤ 0.1 | 6 | 3 | 3 | 5 | 5 | 2 plants | 7 | 4 | 1 plant^ plants | 42.39 | 26.44 | 14.69 | 42.36 | 30.93 | 14.34 | Coloring of red was denser | Generation of the precipitate was not found | degradability by high temperature heat sterilization compared with hydrochloride [3]: lower degradability; Degradation degree (%) ([3]; 50 mg heat sterilized, 121° C., 20 minutes, 1.5 kgf/cm^2): 2.7%

— patent US8471061B2 (priority 2004, dated 2013)
